The subject of test [1] is withdrawal reflex of the rat tail (tail flick) to radiant heat beam. Kind of test: Low-intensity tail flick test (rat). It counts as in vivo. The settings on record: dose 10 mg/kg (dose in brackets), MPE = percentage of maximum possible effect. The procedure: Method II. Low-Intensity Tail Flick Test (Rat)
In the low-intensity tail flick test, the determination of the antinociceptive effect of the compounds according to the invention towards an acute noxious thermal stimulus is carried out by measuring the withdrawal reflex of the rat tail (tail flick) in response to a radiant heat beam (analgesia meter; model 2011 of the company Rhema Labortechnik, Hofheim, Germany) according to the method described by D'Amour and Smith (J. Pharm. Exp. Ther. 72, 74 79 (1941). To this end, the rats were placed in a plexiglas restrainer, and a low-intensity radiant heat beam (48° C.) was focused onto the dorsal surface of the tail root. The stimulus intensity was adjusted to result in a mean pre-drug control withdrawal latency of about 7 s, thus also allowing a supraspinal modulation of the spinally mediated acute nociceptive reflex. […] Before administration of a compound according to the invention, the animals were pre-tested twice in the course of five minutes and the mean of these measurements was calculated as the pre-test mean. The antinociceptive effect was determined at 20, 40 and 60 min after peroral compound administration. The antinociceptive effect was calculated based on the increase in the tail withdrawal latency according to the following formula and is expressed as percentage of the maximum possible effect (MPE [%]): […]
(In general: Hot-plate and tail-flick tests time the reaction to a heat stimulus.)

The next test addresses T1, KCNQ2/3 channels (Homo sapiens, UniProt O43525+O43526).
T1 construct: expressed in transfected cells; host or cells: CHO-K1 cells kept under selection antibiotics
Description: Fluorescence assay using a voltage sensitive dye (fluorimetry). It counts as cell-based. To be noted: CHO-K1 cells expressing KCNQ2/3 channels. Here is the method:
Method I. Fluorescence Assay Using a Voltage Sensitive Dye (Fluorimetry) […] CHO-K1 cells expressing KCNQ2/3 channels are cultivated adherently at 37° C., 5% CO2 and 95% humidity in cell culture bottles (e.g. 80 cm^2 TC flasks, Nunc) with DMEM-high glucose (Sigma Aldrich, D7777) including 10% FCS (PAN Biotech, e.g. 3302-P270521) or alternatively MEM Alpha Medium (1×, liquid, Invitrogen, #22571), 10% fetal calf serum (FCS) (Invitrogen, #10270-106, heat-inactivated) and the necessary selection antibiotics.
Before being sown out for the measurements, the cells are washed with 1×DPBS buffer Ca^2+/Mg^2+-free (e.g. Invitrogen, #14190-094) and detached from the bottom of the culture vessel by using Accutase (PAA Laboratories, #L11-007) (incubation with Accutase for 15 min at 37° C.). The cell number is determined using a CASY™ cell counter (TCC, Scharfe System). Depending on the optimal density for each individual cell line, 20,000-30,000 cells/well/100 μl are seeded onto 96-well Corning™ CeIIBIND™ assay plates (Flat Clear Bottom Black Polystyrene Microplates, #3340). Freshly seeded cells are then left to settle for one hour at room temperature, followed by incubation for 24 hours at 37° C., 5% CO2 and 95% humidity.
The voltage-sensitive fluorescent dye from the Membrane Potential Assay Kit (Red™ Bulk format part R8123 for FLIPR, MDS Analytical Technologies™) is prepared by dissolving the contents of one vessel Membrane Potential Assay Kit Red Component A in 200 ml of extracellular buffer (ES buffer, 120 mM NaCl, 1 mM KCl, 10 mM HEPES, 2 mM CaCl2, 2 mM MgCl2, 10 mM glucose; pH 7.4). After removal of the nutrient medium, the cells are washed once with 200 μl of ES buffer, then loaded for 45 min at room temperature in 100 μl of dye solution in the dark.
Fluorescence measurements are carried out in a BMG Labtech FLUOstar™, BMG Labtech NOVOstar™ or BMG Labtech POLARstar™ instrument (525 nm excitation, 560 nm emission, Bottom Read mode). After incubation with the dye, 50 μl of the test substances in the desired concentrations, or 50 μl of ES buffer for control purposes, are applied to the wells of the assay plate and incubated for 30 min at room temperature while being shielded from light. The fluorescence intensity of the dye is then measured for 5 min and the fluorescence value F1 of each well is thus determined at a given, constant time. 15 μl of a KCl solution are then added to each well (final concentration of potassium ions 92 mM). The change in fluorescence intensity is subsequently monitored until all the relevant values have been obtained (mainly 5-30 min). At a given time post KCl application, a fluorescence value F2 is determined, in this case at the time of the fluorescence peak.
For calculation, the fluorescence intensity F2 is corrected for the fluorescence intensity F1, and the activity (ΔF/F) of the target compound on the potassium channel is determined as follows:
In order to determine whether a substance has agonistic activity, is determined by adding to the well only the buffer solution instead of the test substance, determining the value F1K of the fluorescence intensity, adding the potassium ions as described above, and measuring a value F2K of the fluorescence intensity. F2K and F1K are then calculated as follows: […]
A substance has an agonistic activity on the potassium channel if it is possible to conclude that a target compound has agonistic activity if Calculations of EC50 and IC50 values are carried out with the aid of ‘Prism v4.0’ software (GraphPad Software™).

`CCCc1cc(N2CCOCC2)nc(C)c1C(=O)NCc1ccc(Cl)cc1` [Example 4, N-[(4-Chlorophenyl)-methyl]-2-methyl-6-morpholin-4-yl-4-propyl-pyridine-3-carboxylic acid amide]: in test [1], the “Low intensity tail flick, rat, peroral, MPE (dose)” value is 42 (10) %. Moreover, at KCNQ2/3 channels (relative to retigabine = 100%, read-out: Fluorimetry % efficacy (retigabine = 100%)), the Emax was 187%. In addition, the EC50 on KCNQ2/3 channels (voltage-sensitive dye, read-out: Fluorimetry EC50/IC50) was 263 nM.
